Experimental data as given in patent publication EP0717995A2, “Cell degeneration suppressing and organ toxicity reducing agent” (SANWA KAGAKU KENKYUSHO CO., LTD., priority 1994, dated 1996).
Where two headings read alike, the source gives them in different places.

Tests used:
Format in all cases: in vivo
[1] = system: spontaneous nephritis in MRL/1 mice; test: Preventive action against spontaneous nephritis in MRL/1 mice (urinary protein, blood urea nitrogen); conditions: male MRL/1 mice, positive (urinary protein 100 mg/dl or more) / survived animals
Procedure: Protective effect of the pharmaceutical preparation of the present invention against spontaneous nephritis in MRL/1 mice was examined (protective effect on functional reduction due to aging).
Each test sample of 1 to 10 mg/kg mixed with feed was orally administered to male MRL/1 mice of 6 weeks of age (15 animals per 1 group) twice a week for 12 weeks. During the administration period, urinary protein was measured once a week to examine positive ratio in each week of age by defining an individual showing a urinary protein level of 100 mg/dl or more as positive. Also, blood urea nitrogen was measured on the next day of the final administration to carry out serologic biochemical evaluation of the action of the compound of the present invention against nephritis, together with histopathological evaluation.

rats of 10 months of age = system: rats of 10 months of age
Procedure: Using rats of 10 months of age (8 to 9 animals per 1 group), 0.5 g/kg of carbon tetrachloride was orally administered as a hepatic toxicity substance to increase the serum GOT level to 500 KARMEN units or more after 24 hours of the administration, simultaneously carrying out oral administration of (1) indomethacin (5 mg/kg) or (2) tetracycline (10 mg/kg) as a pharmaceutical drug having hepatic toxicity, 3 times on every other day.
In the inventive substance-treated group, the sulfatide composition described in Composition Production Example (2 mg/kg as sulfatide) was orally administered simultaneously with the pharmaceutical drug having hepatic toxicity.
The GOT enzyme released in blood caused by hepatocyte destruction was measured 12 hours after completion of the drug administration, and the liver was extracted to carry out histological tissue examination.

[2] = system: herpes simplex type 1 virus (HSV-1); test: Interferon enhancer effect in mice infected with herpes simplex type 1 virus (survival); conditions: BALB/c mice, HSV-1 MIYAMA strain 10 LD50; oral sulfatide for 5 days together with 4 × 10⁴ IU/kg IFN-α i.p.
Procedure: Synergetic effect of the simultaneous use of IFN-α and sulfatide on mice infected with herpes simplex type 1 virus (HSV-1)
A total of 10 BALB/c mice were used in one group and infected with a 10 LD₅₀ equivalent dose of HSV-1 MIYAMA strain. Intraperitoneal administration of IFN-α was carried out on the day before the inoculation of HSV-1 and just after the inoculation, and oral administration of sulfatide was carried out continuously for 5 days starting on the day before the HSV-1 inoculation until the fourth day after the inoculation. Conditions of the animals were observed until 20 days after the HSV-1 infection to calculate survival rate.

[3] = system: mouse hepatitis virus (MHV); test: Interferon enhancer effect in mice infected with mouse hepatitis virus (survival); conditions: ICR mice, MHV Friend strain 2 LD50 i.p.; oral sulfatide used simultaneously with IFN-α i.p., once a day for 3 days
Procedure: Synergetic effect of the simultaneous use of interferon-α (IFN-α) and the substance of the present invention, sulfatide, on mice infected with mouse hepatitis virus (MHV)
A total of 10 ICR mice were used in one group, and intraperitoneal administration of mouse IFN-α and oral administration of […] were carried out once a day for 3 days. Just before the administration on the second day, MHV Friend strain was inoculated into the abdominal cavity in a 2 LD₅₀ equivalent dose, and conditions of the animals were observed until 14 days thereafter to calculate survival ratio.

[4] = dose 2 mg/kg oral in feed twice a week from 6 weeks of age
[5] = dose 1 mg/kg oral in feed twice a week from 6 weeks of age

CCCCCCCCCCCCCCCCOCC(COC1OC(CO)C(O)C(OS(=O)(=O)O)C1O)OC(=O)CCCCCCCCCCCCCCC [seminolipid, 3-O-(β-D-Galactopyranosyl 3-sulfate)-2-O-hexadecanoyl-1-O-hexadecyl-L-glycerol]
Changes in positive urinary protein, Weeks of Age 16 [1, 4]: 3/15 | Changes in positive urinary protein, Weeks of Age 17 [1, 4]: 4/15 | Changes in positive urinary protein, Weeks of Age 18 [1, 4]: 8/15

IV³ SO₃ II³ SO₃ Ge4Cer [SB1a]
Changes in positive urinary protein, Weeks of Age 16 [1, 4]: 5/15 | Changes in positive urinary protein, Weeks of Age 17 [1, 4]: 7/15 | Changes in positive urinary protein, Weeks of Age 18 [1, 4]: 10/15

sialyl Lewis A
Changes in positive urinary protein, Weeks of Age 16 [1, 5]: 3/15 | Changes in positive urinary protein, Weeks of Age 17 [1, 5]: 5/14 | Changes in positive urinary protein, Weeks of Age 18 [1, 5]: 9/14

COc1ccc2c(c1)c(CC(=O)O)c(C)n2C(=O)c1ccc(Cl)cc1 [indomethacin, reference compound]
Changes in GOT, 12 hrs after Completion of Drug Administration (rats of 10 months of age; group a): carbon tetrachloride + indomethacin (5 mg/kg oral, 3 times on every other day), no sulfatide): 1054 ± 31.2 KARMEN units

sulfatide
Changes in positive urinary protein, Weeks of Age 16 [1, 4]: 2/15 | Changes in positive urinary protein, Weeks of Age 17 [1, 4]: 5/15 | Changes in positive urinary protein, Weeks of Age 18 [1, 4]: 9/15 | average survival days [2]: significantly effective in dose-dependently prolonging average survival days | effect of IFN-α on average survival days [3]: further increased significantly in a dose dependent fashion | Changes in GOT, 12 hrs after Completion of Drug Administration (rats of 10 months of age; group c): carbon tetrachloride + indomethacin (5 mg/kg) + sulfatide composition (2 mg/kg as sulfatide, oral)): 469 ± 61.5 KARMEN units | Changes in GOT, 12 hrs after Completion of Drug Administration (rats of 10 months of age; group d): carbon tetrachloride + tetracycline (10 mg/kg) + sulfatide composition (2 mg/kg as sulfatide, oral)): 439 ± 30.5 KARMEN units | Changes in GOT, 12 hrs after Completion of Drug Administration (rats of 10 months of age; group e): carbon tetrachloride + sulfatide composition (2 mg/kg as sulfatide, oral)): 128 ± 48.7 KARMEN units

III³ II³ SO₃ Ge3Cer [SB2]
Changes in positive urinary protein, Weeks of Age 16 [1, 4]: 4/15 | Changes in positive urinary protein, Weeks of Age 17 [1, 4]: 5/15 | Changes in positive urinary protein, Weeks of Age 18 [1, 4]: 10/15

II³ SO₃ Lac Cer [SM3]
Changes in positive urinary protein, Weeks of Age 16 [1, 4]: 2/15 | Changes in positive urinary protein, Weeks of Age 17 [1, 4]: 4/15 | Changes in positive urinary protein, Weeks of Age 18 [1, 4]: 8/15

sialyl Lewis X
Changes in positive urinary protein, Weeks of Age 16 [1, 5]: 3/15 | Changes in positive urinary protein, Weeks of Age 17 [1, 5]: 4/15 | Changes in positive urinary protein, Weeks of Age 18 [1, 5]: 8/15
